Assay results reported in US5254801A, “Heterologous dominant conditional lethal gene which is a phosphonate monoester hydrolase and use thereof in plants” (Monsanto Company, priority 1990, dated 1993).

Columns and labels:
PG2982 crude extract = assay: In vitro radioactive hydrolysis assay in crude extracts; assay type: biochemical, Pseudomonas caryophilli; details: strain PG2982
Text: The enzymatic reaction can be assayed using labelled (3-^14 C-) glyceryl glyphosate as a substrate and following the conversion to (3-^14 C-)glyphosate as a product using a high pressure liquid chromatography system with a radioactive detector. This assay is the most specific for the phosphonate monoester hydrolase enzymes useful for conditional cell lethality. An enzyme assay consists of 40,000 cpm of labelled (3-^14 C-) glyceryl glyphosate (obtained from NEN Biochemicals), the PEH sample in buffer and buffer to 100 μl final volume. The assay buffer is 10 mM Bis-Tris propane, pH 9.0, plus 100 mM KCl. The reaction is run for 1 hour at 30° C. and then stopped by the addition of 100 μl "quench" which is 100 mM sodium acetate, pH 5.5, in ethanol. […] The radioactivity of the peaks is measured and integrated by a post-column detector. […]
(§1) Bacteria which grew in this medium using glyceryl glyphosate as a sole phosphate source had the ability to cleave both the ester and the phosphonate bond to release the free phosphate. […] After a three hour incubation period, the cells were pelleted in a microfuge and the supernatant injected onto an HPLC anion exchange column and glyphosate analyzed as described above. […] The pellet extract was then analyzed for glyphosate product as described above. […]

PG2982 = assay: Growth on glyceryl glyphosate as sole phosphate source; assay type: cell-based, Pseudomonas caryophilli; details: strain PG2982; 0.2 mM in DF minimal medium
Protocol: (§2) Bacteria capable of degrading glyphosate are known (Hallas et al., 1988; Malik et al., 1989; and Moore et al., 1983; Heitkamp et al., 1990). Five of these bacteria (PG2482, LBAA, T10, T12 and CP4) and four strains of E. coli were screened for the rapid degradation of glyceryl glyphosate into inorganic phosphate. The bacteria were inoculated into 2 ml Dworkin-Foster(DF) minimal medium containing glucose, sodium gluconate and potassium citrate (each 0.1%) as carbon source and containing 0.2 mM glyceryl glyphosate as a phosphate source. The Dworkin-Foster minimal medium was made by combining 1 liter sterile H2 O with 1 ml each of A, B, C, E and F, 10 ml D, C-sources to final concentration of 0.1% each and P-source to 0.2 mM.
as §1, with “phosphate. For these bacteria to be useful in the present invention, the first step in the mineralization of glyceryl glyphosate needed is the hydrolysis of the phosphonate ester.” for “phosphate.”

[1] = Translocation of radiolabelled compound applied to tomato leaves; assay type: in vivo; details: tissues analysed after two days
Protocol: The critical tests for a prophytotoxin to be used in negative selection, cell ablation and as a gametocide are that the compound is non-phytotoxic per se but can be hydrolyzed into a phytotoxin by the phosphonate monoester hydrolase protein. The most general and specific method to determine if a protoxin is hydrolyzed to a toxic form of glyphosate is a HPLC assay. The compounds are dissolved at 100 mM concentration in a suitable buffer such as 10 mM TAPS, (N-Tris(hydroxymethyl)methyl-2-aminopropane sulfonic acid) pH 9.0. Triplicate samples (0.1 ml) of the compound are then diluted with 0.9 ml of 10 mM TAPS, pH 9.0 and with 0.9 ml 10 mM TAPS, pH 9.0 plus one unit (1 μmol/min) of enzyme. After 24 hour incubation at 25° C., the samples are injected onto a HPLC column for glyphosate analysis. […] The protoxin and glyphosate are separated on an anion exchange column. the glyphosate is oxidized as it elutes in the presence of bleach and is then derivatized by o-pthaldehyde to a fluorescent derivative which can be quantitatively measured by a fluorescence monitor. […] After two days, the plant is dissected into individual tissues and the amount of protoxin in each tissue determined. […] The tissue samples were then combusted and the amount of radiolabelled compound in each tissue determined by scintillation counting.

T12 = assay: Growth on glyceryl glyphosate as sole phosphate source; assay type: cell-based; details: strain T12; 0.2 mM in DF minimal medium
Protocol: as §2
(§3) Bacteria which grew in this medium using glyceryl glyphosate as a sole phosphate source had the ability to cleave both the ester and the phosphonate bond to release the free phosphate. For these bacteria to be useful in the present invention, the first step in the mineralization of glyceryl glyphosate needed is the hydrolysis of the phosphonate ester. Each of the three bacteria which utilized glyceryl glyphosate as a phosphate source were then assayed for a phosphonate monoester hydrolase activity using an in vivo (3-^14 C-) glyceryl glyphosate assay. A 150 ml culture of each bacteria was grown in DF minimal medium with 0.2 mM HK2 PO4 as a phosphate source in a 500 ml flask, 30° C., with shaking. The bacteria were pelleted by centrifugation at 5,000×g for 10 min and resuspended at 10 mg fresh weight/ml. An assay mix included 50 μl cells plus 10 μl (3-^14 C-) glyceryl glyphosate (10,000 cpm/μl) and kept at 30° C. with shaking. After a three hour incubation period, the cells were pelleted in a microfuge and the supernatant injected onto an HPLC anion exchange column and glyphosate analyzed as described above. The pellet was washed twice with 1 ml 10 mM HEPES, pH 7.0, and resuspended in 25 μl buffer. The cells were lysed with 25 μl quench and the debris pelleted in a microfuge. The pellet extract was then analyzed for glyphosate product as described above. Glyphosate was found in the pellet extracts of these three bacteria indicating the presence of a phosphonate monoester hydrolase activity in these organisms.

[2] = tested on: E. coli MM294, JM101, JM101/MPU+, SR200/MPU; assay: as above; assay type: cell-based; details: E. coli strains; 0.2 mM in DF minimal medium
Protocol: as §2, §3

LBAA = assay: as above; assay type: cell-based; details: strain LBAA; 0.2 mM in DF minimal medium
Protocol: as §2, §3

CP4 = assay: as above; assay type: cell-based; details: strain CP4; 0.2 mM in DF minimal medium
Protocol: as §2, §3

[3] = Storage stability of radioactive glyceryl glyphosate; assay type: physicochemical; details: radioactive compound stored at -20° C. over a period of 3 months
[4] = tested on: E. coli MM294, JM101, JM101/MPU+, SR200/MPU; assay: In vivo (3-14C-) glyceryl glyphosate hydrolysis assay in whole cells; assay type: cell-based; details: E. coli strains; three hour incubation, 30° C.

**Q.** With `O=C(O)CNCP(=O)(O)OCC(O)CO` (stereo not drawn) [glyceryl glyphosate, glycine, N-([hydroxy (2,3 dihydroxy propoxy)phosphonyl]methyl)] as the compound, how does the “Hydrolysis of Glyceryl Glyphosate into Glyphosate in Crude Extracts” value (PG2982 crude extract) read?
**A.** Yes

**Q.** What about the “Glyceryl Glyphosate as Phosphate Source” value (PG2982) of the same compound?
**A.** Yes

**Q.** And the “Translocation to developing anthers” value [1]?
**A.** translocates to developing anthers

**Q.** What about the “Glyceryl Glyphosate as Phosphate Source” value (T12) of the same compound?
**A.** No

**Q.** And the “Glyceryl Glyphosate as Phosphate Source” value [2]?
**A.** No

**Q.** And the “Glyceryl Glyphosate as Phosphate Source” value (LBAA)?
**A.** Yes

**Q.** What about the “Glyceryl Glyphosate as Phosphate Source” value (CP4) of the same compound?
**A.** No

**Q.** And the Storage stability [3]?
**A.** unstable

**Q.** And the “In vivo Hydrolysis of Glyceryl Glyphosate into Glyphosate” value [4]?
**A.** No
